This note sets out measurements from patent US20250008957A1, “METHOD OF IMPROVING PLANT GROWTH” (UPL LIMITED, priority 2021, published 2025).

The subject of assay [1] is corn seeds. The assay can be described thus: Seed treatment of corn seeds with flonicamid combinations: root length and fresh weight of seedlings. The conditions noted are these: 5 ml/kg of seed; for Fresh weight: seedlings. It counts as in vivo, Zea mays. The protocol: (§1) 7 kg of untreated clean seeds of Zea mays were collected. The seeds were 5 mixed thoroughly in a tray to make them homogeneous. 21 sub-samples of 300 g each were prepared. A polythene bag was used for the treatment of each sample with flonicamid combinations. The formulation was used at a dosage of 5 ml/kg of seed. Before treating, the seeds were checked for their initial moisture content and minimum germination percentage. After the treatment, the treated seeds were dried in a hot air chamber having temperature of 40-43° C. to maintain their original moisture content. Table 5 discloses the effect on root length and Table 6 discloses fresh weight of the seedlings.

Assay [2] has as its system corn seeds. The assay can be described thus: Germination index of treated corn seeds by petri dish method. The format is in vivo, Zea mays. The conditions noted are these: 5 ml/kg of seed. The protocol:
as §1, with “were” for “were 5”, “Table 10” for “Table 5”, “the germination index” for “the effect on root length and Table 6 discloses fresh weight”, “of corn seeds by petri dish method.” for “of the seedlings.”

The structures appear in SMILES notation.

Take `CNC(=O)c1cc(C#N)cc(C)c1NC(=O)c1cc(Br)nn1-c1ncccc1Cl` [Cyantraniliprole 120 g/L, Cyantraniliprole]: in the assay on corn seeds [1], the Root length is 14.25 cm and the Fresh weight is given as 20.92 g. For the same molecule, the Germination index with corn seeds [2] (4th day) was 7. Besides, the Germination index in the assay with corn seeds [2] (7th day) was determined as 3.
Taken in the same sequence, the figures for `COCC(=O)N(c1c(C)cccc1C)C(C)C(=O)OC` (centres unmarked) [Metalayxl 50 g/L, metalaxyl] were 15 cm, 25.72 g, 7 and 3.
For the molecule `N#CCNC(=O)c1cnccc1C(F)(F)F` [Flonicamid 240 g/L, N-cyanomethyl-4-trifluoromethylnicotinamide], the results for the Germination index in the assay on corn seeds [2] (4th day) and with corn seeds [2] (7th day) were 7 and 3, respectively.
For `N#Cc1c[nH]cc1-c1cccc2c1OC(F)(F)O2` [Fludioxonil 25 g/L, fludioxonil], the Root length in the assay on corn seeds [1] is 14 cm. Moreover, the figures for the Germination index in the assay with corn seeds [2] (4th day) and in the assay on corn seeds [2] (7th day) were 8 and 1, respectively.
For `CN1COCN(Cc2cnc(Cl)s2)/C1=N\[N+](=O)[O-]` [Thiamethoxam], in the assay with corn seeds [1], the Root length is 11.75 cm and the Fresh weight worked out at 19.31 g. Further, the Germination index with corn seeds [2] (4th day) was determined as 7. The Germination index in the assay on corn seeds [2] (7th day) worked out at 2.
In the case of `CC(C)C1CCC(Cc2ccc(Cl)cc2)C1(O)Cn1cncn1` (centres unmarked) [Ipconazole 25 g/L, ipconazole], the Germination index came to 7 with corn seeds [2] (4th day) and 3 in the assay with corn seeds [2] (7th day).
`N#CCNC(=O)c1cnccc1C(F)(F)F` [Flonicamid 360 g/L, N-cyanomethyl-4-trifluoromethylnicotinamide]: in the assay on corn seeds [1], the Root length was determined as 12.5 cm and the Fresh weight came out at 22.73 g. The Germination index in the assay with corn seeds [2] (4th day) is given as 7. For the same molecule, the Germination index in the assay on corn seeds [2] (7th day) stood at 1.
`CC1=C(C(=O)Nc2ccccc2)SCCO1` [Carboxin 200 g/L, carboxin]: in the assay with corn seeds [1], the Root length was 14.25 cm.
Take `CNC(=O)c1cc(Cl)cc(C)c1NC(=O)c1cc(Br)nn1-c1ncccc1Cl` [Chlorantraniliprole 120 g/L, Chlorantraniliprole]: the Germination index in the assay on corn seeds [2] (4th day) stood at 7; with corn seeds [2] (7th day), 1.
